Activity calls are given as the source filed them.
Columns and labels:
[1] = molecular target: Voltage-gated inwardly rectifying potassium channel KCNH2 (Homo sapiens, UniProt Q12809); settings: Potency;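 also: confirmatory quantitative high-throughput screen measuring inhibition of hERG channel activity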
Cytochrome P450 3A4 = Cytochrome P450 3A4 (Homo sapiens, UniProt P08684);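 also: CYP3A4 tested as one member of a cytochrome P450 panel screen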
[2] = cytotoxicity in HMLE control line with eGFP shRNA, dose response, counter-screen for HMLE_sh_ECad selective toxicity project, cell-based, HMLE_sh_eGFP, luminescence (AID 463074); type: functional, Homo sapiens;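 also: HMLE human mammary epithelial cells expressing control shRNA against eGFP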
[3] = Luminescence Cell-Based Dose Retest to Confirm Inhibitors of Cancer Stem Cells. [Related pubchem assays (depositor defined):AID2717, AID2721]; type: functional; settings: Homo sapiens
[4] = molecular target: Dual specificity protein kinase CLK1 (Homo sapiens, UniProt P49759); experiment: CLK1 kinase inhibitors, off-target check, dose response, selectivity assay for Dyrk1A inhibitor project, biochemical, cherry-picked samples (AID 588811)
Sequence of Dual specificity protein kinase CLK1 (P49759 whole entry): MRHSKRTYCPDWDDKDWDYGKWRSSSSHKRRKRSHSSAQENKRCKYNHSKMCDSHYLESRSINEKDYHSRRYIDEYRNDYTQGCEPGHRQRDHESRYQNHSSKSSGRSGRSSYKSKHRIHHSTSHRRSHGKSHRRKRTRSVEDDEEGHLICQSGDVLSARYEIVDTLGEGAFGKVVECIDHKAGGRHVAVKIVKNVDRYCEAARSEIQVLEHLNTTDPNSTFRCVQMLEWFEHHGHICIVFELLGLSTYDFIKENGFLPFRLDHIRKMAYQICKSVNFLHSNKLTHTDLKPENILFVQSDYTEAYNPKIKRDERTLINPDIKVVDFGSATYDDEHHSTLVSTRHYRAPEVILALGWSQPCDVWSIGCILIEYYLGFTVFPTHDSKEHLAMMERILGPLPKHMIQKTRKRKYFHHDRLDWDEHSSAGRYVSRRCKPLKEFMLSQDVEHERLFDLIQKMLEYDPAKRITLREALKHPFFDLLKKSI

[5] = molecular target: Dual specificity tyrosine-phosphorylation-regulated kinase 1A (Rattus norvegicus, UniProt Q63470); type: biochemical, Homo sapiens
MDCK [6] = experiment: MDCK cell cytotoxicity, dose response, cytotoxicity control (AID 540296); type: functional; settings: Canis lupus familiaris
[7] = molecular target: Luciferin 4-monooxygenase (Photinus pyralis, UniProt P08659); experiment: firefly luciferase enzyme inhibitors, dose response, biochemical, luminescence (AID 1891)
Sequence of Luciferin 4-monooxygenase (P08659 whole entry): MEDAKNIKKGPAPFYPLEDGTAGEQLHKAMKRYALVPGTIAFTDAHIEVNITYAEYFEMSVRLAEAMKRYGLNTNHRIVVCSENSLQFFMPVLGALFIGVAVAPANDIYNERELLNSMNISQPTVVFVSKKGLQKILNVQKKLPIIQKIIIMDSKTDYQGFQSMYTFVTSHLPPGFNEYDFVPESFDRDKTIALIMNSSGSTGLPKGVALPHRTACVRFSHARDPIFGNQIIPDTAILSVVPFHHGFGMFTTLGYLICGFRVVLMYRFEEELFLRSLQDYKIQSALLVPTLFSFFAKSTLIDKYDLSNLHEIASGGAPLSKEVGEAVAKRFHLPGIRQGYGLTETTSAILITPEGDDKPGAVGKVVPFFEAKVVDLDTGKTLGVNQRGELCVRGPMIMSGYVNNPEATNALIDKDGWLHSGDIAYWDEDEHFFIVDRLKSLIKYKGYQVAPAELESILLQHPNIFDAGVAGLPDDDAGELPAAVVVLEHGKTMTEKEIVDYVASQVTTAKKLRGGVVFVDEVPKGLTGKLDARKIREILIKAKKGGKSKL

Nonstructural protein 1 = Nonstructural protein 1 (Influenza A virus, UniProt Q194T2); type: functional, Influenza A virus (A/California/07/2009(H1N1))
Sequence of Nonstructural protein 1 (Q194T2 whole entry): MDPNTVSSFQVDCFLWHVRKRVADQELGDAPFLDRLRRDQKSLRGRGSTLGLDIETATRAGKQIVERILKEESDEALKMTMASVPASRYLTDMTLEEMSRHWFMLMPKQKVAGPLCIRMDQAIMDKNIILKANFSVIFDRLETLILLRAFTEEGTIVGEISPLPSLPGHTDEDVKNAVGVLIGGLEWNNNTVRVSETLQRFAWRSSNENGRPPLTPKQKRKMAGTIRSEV

[8] = Luminescence Cell-Based Dose Confirmation HTS to Identify Inhibitors of Platelet Dense Granule Release. [Related pubchem assays: 1663 (Primary HTS), 1678 (Summary of Project)]; type: functional
MDCK [9] = experiment: antiviral activity against H1N1 influenza, dose response, cell-based, strain KY180 (AID 540254); type: functional; settings: Canis lupus familiaris
Mu-type opioid receptor = Mu-type opioid receptor (Homo sapiens, UniProt P35372); experiment: (§1) Counterscreen for agonists of heterodimerization of the mu 1 (OPRM1) and delta 1 (OPRD1) opioid receptors: Luminescence-based cell-based high throughput dose response assay to identify agonists of OPRM1 homodimerization.; type: functional
Sequence of Mu-type opioid receptor (P35372 whole entry): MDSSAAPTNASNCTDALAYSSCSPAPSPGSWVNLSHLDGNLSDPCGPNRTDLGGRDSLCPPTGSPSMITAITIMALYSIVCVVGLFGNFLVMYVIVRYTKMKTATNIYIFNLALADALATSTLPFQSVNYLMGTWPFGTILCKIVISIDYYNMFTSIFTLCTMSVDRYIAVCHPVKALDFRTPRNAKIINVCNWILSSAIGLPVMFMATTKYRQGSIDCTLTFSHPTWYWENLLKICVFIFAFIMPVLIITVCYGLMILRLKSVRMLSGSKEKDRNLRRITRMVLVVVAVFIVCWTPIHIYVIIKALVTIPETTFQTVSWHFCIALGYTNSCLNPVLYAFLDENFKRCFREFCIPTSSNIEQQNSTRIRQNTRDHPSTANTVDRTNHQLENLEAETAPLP

[10] = molecular target: T1, Short transient receptor potential channel 4 (Mus musculus, UniProt Q9QUQ5); experiment: mouse TRPC4 channel activators, dose response, cell-based, HEK293 TRPC4/mu-opioid, Fluo-4 calcium (AID 434937); type: functional
T1 sequence (Q9QUQ5 whole entry): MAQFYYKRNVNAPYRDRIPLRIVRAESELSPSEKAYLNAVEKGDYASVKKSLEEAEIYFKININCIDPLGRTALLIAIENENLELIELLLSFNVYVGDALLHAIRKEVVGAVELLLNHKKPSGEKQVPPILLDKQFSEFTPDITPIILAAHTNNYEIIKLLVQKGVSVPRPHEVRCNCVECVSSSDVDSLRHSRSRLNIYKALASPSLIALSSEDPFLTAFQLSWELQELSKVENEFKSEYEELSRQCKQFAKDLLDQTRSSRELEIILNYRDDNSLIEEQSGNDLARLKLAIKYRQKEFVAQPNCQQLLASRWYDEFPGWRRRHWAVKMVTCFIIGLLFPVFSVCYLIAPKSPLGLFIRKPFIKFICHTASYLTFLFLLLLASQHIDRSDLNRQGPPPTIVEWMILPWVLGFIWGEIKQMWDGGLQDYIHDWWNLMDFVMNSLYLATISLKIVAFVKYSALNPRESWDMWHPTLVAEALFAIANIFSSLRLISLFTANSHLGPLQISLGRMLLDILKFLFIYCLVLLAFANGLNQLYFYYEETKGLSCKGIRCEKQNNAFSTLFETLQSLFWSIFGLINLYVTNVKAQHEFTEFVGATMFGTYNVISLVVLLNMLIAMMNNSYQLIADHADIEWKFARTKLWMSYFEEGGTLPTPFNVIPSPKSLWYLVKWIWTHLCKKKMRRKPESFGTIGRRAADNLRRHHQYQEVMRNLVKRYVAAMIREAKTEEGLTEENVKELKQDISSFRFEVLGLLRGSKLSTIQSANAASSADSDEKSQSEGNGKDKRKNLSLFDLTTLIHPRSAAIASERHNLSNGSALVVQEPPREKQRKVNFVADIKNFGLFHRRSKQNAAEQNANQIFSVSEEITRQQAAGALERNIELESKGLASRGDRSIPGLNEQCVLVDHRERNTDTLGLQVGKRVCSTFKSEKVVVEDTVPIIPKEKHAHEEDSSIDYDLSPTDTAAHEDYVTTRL

[11] = molecular target: 5-hydroxytryptamine receptor 5A (Homo sapiens, UniProt P47898); experiment: Counterscreen for agonists of OPRM1-OPRD1 heterodimerization: luminescence-based cell-based high throughput dose response assay to identify agonists of 5-hydroxytryptamine (serotonin) 5A receptor (HTR5A). [Related pubchem assays (depositor defined):AID504326, AID504355, AID504692, AID504904, AID504905]; type: functional
Sequence of 5-hydroxytryptamine receptor 5A (P47898 whole entry): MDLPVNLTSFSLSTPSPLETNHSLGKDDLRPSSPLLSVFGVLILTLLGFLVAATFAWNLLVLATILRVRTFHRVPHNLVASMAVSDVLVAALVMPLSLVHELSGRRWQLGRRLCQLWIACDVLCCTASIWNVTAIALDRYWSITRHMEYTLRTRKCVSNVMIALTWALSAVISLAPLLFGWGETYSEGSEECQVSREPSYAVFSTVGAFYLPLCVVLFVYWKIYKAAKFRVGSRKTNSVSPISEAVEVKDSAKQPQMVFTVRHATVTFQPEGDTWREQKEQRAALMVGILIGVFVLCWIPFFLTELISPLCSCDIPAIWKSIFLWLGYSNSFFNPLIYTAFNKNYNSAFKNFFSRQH

[12] = molecular target: Delta-type opioid receptor (Homo sapiens, UniProt P41143); experiment: as §1, with “of OPRD1” for “of OPRM1”, “homodimerization. [Related pubchem assays (depositor defined):AID504326, AID504355, AID504692, AID504904, AID504905]” for “homodimerization.”; type: functional
Sequence of Delta-type opioid receptor (P41143 whole entry): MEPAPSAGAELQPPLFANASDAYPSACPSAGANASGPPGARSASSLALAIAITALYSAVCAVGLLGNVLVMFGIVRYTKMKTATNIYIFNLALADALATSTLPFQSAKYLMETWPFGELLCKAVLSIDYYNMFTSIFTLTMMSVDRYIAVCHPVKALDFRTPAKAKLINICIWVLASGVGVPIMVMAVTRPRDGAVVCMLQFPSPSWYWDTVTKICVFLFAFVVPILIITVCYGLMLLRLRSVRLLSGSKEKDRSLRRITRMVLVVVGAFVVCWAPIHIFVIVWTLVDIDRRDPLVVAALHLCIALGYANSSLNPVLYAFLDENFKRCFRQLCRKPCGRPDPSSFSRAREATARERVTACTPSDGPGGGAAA

Cytochrome P450 2C9 = Cytochrome P450 2C9 (Homo sapiens, UniProt P11712)
Sequence of Cytochrome P450 2C9 (P11712 whole entry): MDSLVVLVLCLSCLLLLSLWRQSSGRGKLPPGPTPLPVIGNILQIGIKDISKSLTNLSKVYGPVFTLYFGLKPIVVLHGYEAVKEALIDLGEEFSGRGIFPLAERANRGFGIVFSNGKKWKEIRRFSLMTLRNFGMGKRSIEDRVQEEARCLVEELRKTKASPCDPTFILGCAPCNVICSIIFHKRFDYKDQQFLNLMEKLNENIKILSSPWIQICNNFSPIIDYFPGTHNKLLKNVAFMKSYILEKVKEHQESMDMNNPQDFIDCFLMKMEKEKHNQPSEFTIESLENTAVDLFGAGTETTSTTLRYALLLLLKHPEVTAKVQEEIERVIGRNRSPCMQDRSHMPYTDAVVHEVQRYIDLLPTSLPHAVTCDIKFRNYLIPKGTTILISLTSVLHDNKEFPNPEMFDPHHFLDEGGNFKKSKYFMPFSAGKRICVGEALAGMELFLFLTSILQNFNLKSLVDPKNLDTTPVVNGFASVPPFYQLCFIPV

[13] = molecular target: T1, Short transient receptor potential channel 4; experiment: mouse TRPC4 channel inhibitors, dose response, cell-based, HEK293 TRPC4/mu-opioid, Fluo-4 calcium (AID 434942); type: functional;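 also: potency of inhibitors blocking the TRPC4 calcium response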
[14] = molecular target: T1, Short transient receptor potential channel 4; experiment: SAR Analysis for the identification of selective inhibits of the transient receptor potential cation channel C4 (TRPC4): Automated Electrophysiology. [Related pubchem assays (depositor defined):AID2256]; type: functional
[15] = molecular target: FAD-linked sulfhydryl oxidase ALR (Homo sapiens, UniProt P55789); experiment: inhibitors of human ALR sulfhydryl oxidase, dose response, biochemical, H2O2 detection, luminescence, cherry-pick (AID 493248)
Sequence of FAD-linked sulfhydryl oxidase ALR (P55789 whole entry): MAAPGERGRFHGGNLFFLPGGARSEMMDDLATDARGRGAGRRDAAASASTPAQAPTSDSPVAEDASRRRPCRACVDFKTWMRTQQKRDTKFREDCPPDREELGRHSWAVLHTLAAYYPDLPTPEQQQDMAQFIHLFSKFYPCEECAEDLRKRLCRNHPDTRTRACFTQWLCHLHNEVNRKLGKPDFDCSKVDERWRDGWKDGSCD

Cytochrome P450 1A2 = molecular target: T2, Cytochrome P450 1A2 (Homo sapiens, UniProt P05177);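 also: PubChem cytochrome P450 panel assay, CYP1A2 panel member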
T2 sequence (P05177 whole entry): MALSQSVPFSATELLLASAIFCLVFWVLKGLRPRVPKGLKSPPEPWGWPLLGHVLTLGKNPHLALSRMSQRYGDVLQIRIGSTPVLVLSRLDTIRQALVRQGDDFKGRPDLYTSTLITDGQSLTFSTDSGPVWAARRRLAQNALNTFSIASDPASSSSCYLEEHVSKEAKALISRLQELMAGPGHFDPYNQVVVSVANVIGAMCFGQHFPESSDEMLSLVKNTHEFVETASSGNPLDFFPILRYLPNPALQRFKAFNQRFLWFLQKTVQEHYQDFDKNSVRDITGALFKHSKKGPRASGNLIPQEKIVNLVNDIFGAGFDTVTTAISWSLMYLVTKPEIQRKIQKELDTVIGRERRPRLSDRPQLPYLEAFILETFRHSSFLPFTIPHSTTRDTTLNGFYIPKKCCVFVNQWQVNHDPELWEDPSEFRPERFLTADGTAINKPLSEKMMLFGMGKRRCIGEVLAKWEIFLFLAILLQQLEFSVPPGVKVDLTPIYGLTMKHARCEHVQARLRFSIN

Sequence of Voltage-gated inwardly rectifying potassium channel KCNH2 (Q12809 whole entry): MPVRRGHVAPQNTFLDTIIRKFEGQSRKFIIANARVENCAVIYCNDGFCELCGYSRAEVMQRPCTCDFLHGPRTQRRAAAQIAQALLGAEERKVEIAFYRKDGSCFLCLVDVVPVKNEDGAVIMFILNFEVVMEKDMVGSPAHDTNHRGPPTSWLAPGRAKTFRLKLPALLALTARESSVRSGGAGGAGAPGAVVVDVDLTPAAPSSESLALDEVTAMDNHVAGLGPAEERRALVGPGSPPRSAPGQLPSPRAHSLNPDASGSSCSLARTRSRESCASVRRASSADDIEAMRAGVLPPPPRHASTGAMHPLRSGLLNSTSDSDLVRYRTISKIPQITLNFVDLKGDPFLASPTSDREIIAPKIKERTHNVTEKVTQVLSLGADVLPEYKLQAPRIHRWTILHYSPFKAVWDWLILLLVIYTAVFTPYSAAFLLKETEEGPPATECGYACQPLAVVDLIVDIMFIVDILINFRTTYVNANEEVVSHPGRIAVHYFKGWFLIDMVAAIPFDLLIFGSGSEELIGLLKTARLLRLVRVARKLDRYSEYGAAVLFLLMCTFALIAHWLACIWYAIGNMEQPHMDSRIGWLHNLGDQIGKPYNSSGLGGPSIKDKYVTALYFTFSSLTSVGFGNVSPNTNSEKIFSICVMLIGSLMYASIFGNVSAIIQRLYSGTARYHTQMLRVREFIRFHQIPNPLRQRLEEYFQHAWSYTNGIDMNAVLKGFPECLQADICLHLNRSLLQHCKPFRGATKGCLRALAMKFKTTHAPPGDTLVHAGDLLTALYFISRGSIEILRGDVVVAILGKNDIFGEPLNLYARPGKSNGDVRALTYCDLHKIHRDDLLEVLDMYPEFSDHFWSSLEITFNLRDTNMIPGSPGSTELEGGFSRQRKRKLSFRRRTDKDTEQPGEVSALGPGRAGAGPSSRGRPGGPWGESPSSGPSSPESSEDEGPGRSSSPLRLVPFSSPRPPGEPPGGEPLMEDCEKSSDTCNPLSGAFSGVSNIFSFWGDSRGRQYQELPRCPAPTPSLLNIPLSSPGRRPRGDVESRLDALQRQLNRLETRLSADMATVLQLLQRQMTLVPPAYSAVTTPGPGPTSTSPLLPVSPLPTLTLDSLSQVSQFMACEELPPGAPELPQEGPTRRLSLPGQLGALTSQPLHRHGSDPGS
Sequence of Cytochrome P450 3A4 (P08684 whole entry): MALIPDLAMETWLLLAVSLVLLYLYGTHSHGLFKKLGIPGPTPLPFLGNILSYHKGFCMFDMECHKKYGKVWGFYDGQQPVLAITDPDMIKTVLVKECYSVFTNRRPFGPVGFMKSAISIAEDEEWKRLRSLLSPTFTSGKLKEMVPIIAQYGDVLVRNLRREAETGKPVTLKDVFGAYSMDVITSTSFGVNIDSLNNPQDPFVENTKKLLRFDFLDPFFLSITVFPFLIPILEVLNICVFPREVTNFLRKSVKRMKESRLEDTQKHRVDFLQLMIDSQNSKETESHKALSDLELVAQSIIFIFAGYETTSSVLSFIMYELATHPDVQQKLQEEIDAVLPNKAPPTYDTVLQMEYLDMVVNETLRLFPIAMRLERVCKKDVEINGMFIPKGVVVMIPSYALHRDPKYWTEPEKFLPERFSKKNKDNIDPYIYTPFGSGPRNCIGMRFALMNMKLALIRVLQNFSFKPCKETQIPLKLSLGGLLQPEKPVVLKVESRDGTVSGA

What does the source list for `CCn1c(=O)c2[nH]c(-c3ccccc3)nc2n(CC)c1=O`?
AC50 [1]: 35.5 µM (inconclusive); AC50 (Cytochrome P450 3A4): 3.98 µM (inconclusive)

Which AC50 [2] does the source give for `O=C1c2ccccc2C(=O)N1CC#CCN1CCN(C(c2ccccc2)c2ccccc2)CC1` here?
The AC50 was 25.2 µM (active).

What about the AC50 [3] of the same molecule?
Its AC50 is 2.06 µM (active).

What does the source list for `COc1ccc(C(=O)c2sc(Nc3ccccc3F)nc2N)cc1`?
AC50 [4]: 3.41 µM (active); AC50 [5]: 1.63 µM (active)

What does the source list for `COc1ccc(N2CCN(CCCN)CC2)cc1`?
CC50 (MDCK [6]): > 40 µM (active); EC50 [7]: > 112 µM (not active); IC50 (Nonstructural protein 1): 39.8 µM (active); EC50 [8]: > 112 µM (not active); IC50 (MDCK [9]): 23 µM (active)

Which EC50 (Mu-type opioid receptor) does the source give for `CC(=O)Nc1ccc(CN2CCCC(C(=O)c3cccc(C(F)(F)F)c3)C2)cc1` (stereo not given) here?
The EC50 was > 92.5 µM (inactive).

And the EC50 [10]?
The EC50 was 1.68 µM (active).

And the EC50 [11]?
The EC50 was > 92.5 µM (inactive).

What about the EC50 [12] of the same molecule?
Its EC50 is 39.4 µM (inactive).

Which AC50 (Cytochrome P450 2C9) does the source give for `Cn1c(-c2ccc(F)cc2)cnc1NCc1ccc(F)cc1` here?
Its AC50 is 20 µM (inconclusive).

And the EC50 [13]?
The EC50 was 0.749 µM (active).

And the IC50 [14]?
Its IC50 is 4.28 µM (active).

What about the AC50 [15] of the same molecule?
The AC50 was 4.7 µM (active).

What about the AC50 (Cytochrome P450 1A2) of the same molecule?
Its AC50 is 8.91 µM (inconclusive).

— ChEMBL document CHEMBL1201862, “PubChem BioAssay data set” (2004)
